In patent US4925943A, “2-(2-aminobenzyl or 2-nitrobenzyl)-1,2,3,4-tetrahydroisoquinoline derivatives” (priority 1986, dated 1990):
Where two headings read alike, the source gives them in different places.

Legend:
[1] = biological target: α1 adrenergic receptors of rat cerebral cortex; assay: [3H] prazosine binding, rat cerebral cortex (α1); set-up: species or system rat (male Wistar); conditions: for Ki: read-out: Prazosine [^3 H] Ki nM, rat cerebral cortex, 0.2 nM [3H] prazosine, 25° C., 30 minutes, at least three experiments ± standard deviation
Experimental: (§1) The preparation of the cerebral cortex homogenates is made starting from male Wistar rats, age 12 weeks. After decapitation, the brains are rapidly removed and dissected. The tissues are homogenized with the aid of an ultra-turrax in 50 mM of a pH 7.5 Tris-HCl buffer and centrifuged at 40,000 g for ten minutes. The centrifugate is dissolved in buffer and recentrifuged in the same way. All of the operations are carried out at a temperature less than 4° C. The final centrifugate is homogenized in the incubation buffer maintained in melting ice (tris-HCl 50 mM pH 7.5) so as to obtain a final dilution of the cortical tissue of 1/100 (by volume), which corresponds to about 0.5 mg of protein per ml.
(§2) These filters are rinsed 4 times with 5 ml of incubation buffer preserved in ice. The radioactivity retained on the filters is counted by liquid scintillation. The non-specific fixation of the radioactive ligand is evaluated in the presence of 10 μM phentolamine.
(§3) Starting from the inhibition curves for the specific fixation of a ligand to its receptor by increasing quantities of a non-radioactive product, the inhibition constant (Ki) of this product is determined.

[2] = biological target: T1, α1 adrenergic receptors of isolated rat deferent canal (Rattus norvegicus, UniProt P43140); assay: antagonism with phenylephrine induced contraction of rat deferent canal; set-up: species or system rat (male Wistar); conditions: for effect on effect-concentration curves of phenylephrine: FIG. 3; for slope of Schild relation, antagonism with phenylephrine: rat deferent canal
T1 construct: The deferent canals of 12-week old male Wistar rats are removed; from tissue; host or cells: isolated vas deferens (deferent canal) of male Wistar rats
T1 sequence (P43140 1-466): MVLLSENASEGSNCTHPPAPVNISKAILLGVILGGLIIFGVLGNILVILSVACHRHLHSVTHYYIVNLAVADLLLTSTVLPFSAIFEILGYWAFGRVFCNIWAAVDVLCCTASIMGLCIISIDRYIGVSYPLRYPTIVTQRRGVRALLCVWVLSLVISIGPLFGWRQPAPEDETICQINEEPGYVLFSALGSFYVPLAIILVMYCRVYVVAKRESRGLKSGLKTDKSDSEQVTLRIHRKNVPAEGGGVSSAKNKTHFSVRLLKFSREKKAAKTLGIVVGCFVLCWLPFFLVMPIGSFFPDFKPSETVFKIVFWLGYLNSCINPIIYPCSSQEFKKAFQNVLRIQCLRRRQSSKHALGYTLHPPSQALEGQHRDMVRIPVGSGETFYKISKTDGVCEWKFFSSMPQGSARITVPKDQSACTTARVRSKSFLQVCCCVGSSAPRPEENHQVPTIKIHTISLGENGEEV
Experimental: The deferent canals of 12-week old male Wistar rats are removed.
Each organ is connected to an isometric sensor of tradename Statham, made by Gould Inc., Medical Product Division, under a base tension of 0.5 g. Contractions are recorded by a polygraph of tradename Beckman, made by Beckman. To characterize the α2 blocking effect, the deferent canal is electrically stimulated by rectangular impulses of 2 msec duration, 30 volts, with a frequency of 0.2 Hz delivered by a stimulator of tradename Bioscience (Stimulator 100), made by Palmer. After a rest period of 20-30 minutes, increasing concentrations of clonidine are added to the survival medium over 2 minutes. This permits establishing the relation between the effect and concentration of clonidine. After generating two successive, cumulative effect-concentration curves separated by a rest period of 20 minutes, the antagonist is placed in contact with the isolated organ for 10 minutes and a new effect-concentration relationship is determined.
To characterize the α1 blocking effect, the organ is stimulated by phenylephrine. […] After a rest period of 30 minutes, increasing concentrations of phenylephrine are added in the organ cell over 30 seconds. A first effect-concentration relationship is established. After a washing and a new rest period of 15 mins. wherein the organ returns to the initial tension, a second effect-concentration relationship is effected. The antagonist is placed in contact with the tissue returned to its base tension after washing and a third effect-concentration relationship is determined. […] The apparent dissociation constant (KD), calculated according to Furchgott, is the relation between the molar concentration of antagonist and the relation of equiactive doses of agonist (in the presence and absence of antagonist) -1.

[3] = tested on: α1 receptors; conditions: statement in words, background; cited from earlier work
[4] = biological target: T2, α2 adrenergic receptors of isolated rat deferent canal (Rattus norvegicus, UniProt P22909); assay: antagonism with clonidine on electrically stimulated rat deferent canal
T2 sequence (P22909 1-465): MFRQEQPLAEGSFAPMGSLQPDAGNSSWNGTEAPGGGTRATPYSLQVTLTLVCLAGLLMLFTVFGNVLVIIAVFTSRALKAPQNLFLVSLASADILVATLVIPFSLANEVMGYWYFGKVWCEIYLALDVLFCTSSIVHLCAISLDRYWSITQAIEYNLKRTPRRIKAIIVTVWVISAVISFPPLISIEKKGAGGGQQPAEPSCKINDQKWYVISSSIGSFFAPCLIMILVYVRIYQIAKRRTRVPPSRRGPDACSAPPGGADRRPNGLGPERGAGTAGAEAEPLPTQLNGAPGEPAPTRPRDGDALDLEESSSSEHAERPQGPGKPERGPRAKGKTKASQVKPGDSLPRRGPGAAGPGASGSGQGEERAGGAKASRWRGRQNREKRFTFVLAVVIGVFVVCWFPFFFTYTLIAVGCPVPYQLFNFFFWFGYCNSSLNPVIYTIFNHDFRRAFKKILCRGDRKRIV
Experimental: Each organ is connected to an isometric sensor of tradename Statham, made by Gould Inc., Medical Product Division, under a base tension of 0.5 g. Contractions are recorded by a polygraph of tradename Beckman, made by Beckman. To characterize the α2 blocking effect, the deferent canal is electrically stimulated by rectangular impulses of 2 msec duration, 30 volts, with a frequency of 0.2 Hz delivered by a stimulator of tradename Bioscience (Stimulator 100), made by Palmer. After a rest period of 20-30 minutes, increasing concentrations of clonidine are added to the survival medium over 2 minutes. This permits establishing the relation between the effect and concentration of clonidine. After generating two successive, cumulative effect-concentration curves separated by a rest period of 20 minutes, the antagonist is placed in contact with the isolated organ for 10 minutes and a new effect-concentration relationship is determined. In preliminary experiments, it was established that the second and third effect-concentration relation with the agonist are identical in the absence of antagonist.
To characterize the α1 blocking effect, the organ is stimulated by phenylephrine. Stimulation of the rat deferent canal produces a rapid contractile response (maximum contraction is obtained in 30 seconds). After a rest period of 30 minutes, increasing concentrations of phenylephrine are added in the organ cell over 30 seconds. A first effect-concentration relationship is established. After a washing and a new rest period of 15 mins. wherein the organ returns to the initial tension, a second effect-concentration relationship is effected. The antagonist is placed in contact with the tissue returned to its base tension after washing and a third effect-concentration relationship is determined. In preliminary experiments, it was established that the second and third effect-concentration relationship of the agonist are identical in the absence of antagonist. […] The apparent dissociation constant (KD), calculated according to Furchgott, is the relation between the molar concentration of antagonist and the relation of equiactive doses of agonist (in the presence and absence of antagonist) -1.
The effect (inhibition of the contractile response) is expressed as a percentage of the maximum effect.

[5] = biological target: T3, α2 adrenergic receptors of rat cerebral cortex (Rattus norvegicus, UniProt P22909); assay: [3H] yohimbine binding, rat cerebral cortex (α2); set-up: species or system rat (male Wistar)
T3 construct: The preparation of the cerebral cortex homogenates is made starting from male Wistar rats; from tissue; host or cells: cerebral cortex homogenate of male Wistar rats
T3 sequence (P22909 1-465): T2 sequence (P22909 1-465)
Experimental: as §1, §2, §3

[6] = tested on: D2 dopaminergic receptor; assay: binding sites of [3H] dexetimide
[7] = tested on: serotonergic receptor; assay: binding sites of [3H] ketanserine
[8] = tested on: H1 histaminic receptor; assay: binding sites of [3H] pyrilamine
[9] = tested on: binding sites of [^3 H] nitrendipine (calcium influx blocking agent); assay: binding sites of [3H] nitrendipine
[10] = tested on: α2 adrenergic receptors of rat aorta; assay: antagonism of BHT 920 induced contraction of isolated rat aorta; set-up: species or system rat (female Wistar)
Experimental: The antagonism of ISK7 relative to the contracture-causing effect of BHT 920 (2-amino-6-allyl-5,6,7,8-tetrahydro[4,5-d]thiazolo-4H-azepinedihydrochloride) (α2 adrenergic agonist) on rat aorta is taken as an example. There is antagonism when a substance is capable of partially or totally opposing the effects of an agonistic substance.
Rapidly removed female Wistar rat aorta is received in a Krebs solution containing: NaCl 120 mM; KCl 4.8 mM; NaHCO3 25 mM; glucose 10 mM; CaCl2 1.25 mM; MgSO4 1.19 mM; KH2 PO4 1.14 mM. The aorta, freed of connective and adipose tissue, is cut in hoops of a length of about 1 mm. Each hoop is installed in a 10 ml organ cell containing Krebs liquid at 37°, oxygenated with an oxygen-carbon dioxide mixture (95% O2 and 5% CO2) and connected to an isometric sensor of tradename Statham and made by Gould Inc., Medical Product Division, under a base tension of 2 g. Recording of the contractions is effected with a polygraph of tradename Beckman and made by Beckman. After a rest period (1 h) interrupted by washings, a first effect-concentration relation is established by studying the contraction provoked by addition in the cell of increasing concentrations of BHT 920. After a new rest period interrupted by washings (30 min.) where the organ returns to the initial tension, the antagonist is placed in contact with the vessel for 10 minutes; the a new effect-concentration relation with BHT 920 is established. In preliminary experiments, it was established that the first and second effect-concentration relation of the agonist are identical in the absence of antagonist. […] The displacement increases with ISK concentration. […] The apparent dissociation constant of ISK7, calculated from experiments illustrated in FIG. 1 for a competitive antagonism according to Furchgott R. F. (in Catecholamines, ed. by Blaschko and Muscholl, Springer-Verlag, Berlin, 1972, pp. 283-335) is 1.2×10^-7 M for the two concentrations employed. […]

## COC(=O)[C@@H]1[C@H]2C[C@H]3c4[nH]c5ccccc5c4CCN3C[C@@H]2CC[C@@H]1O [Yohimbine, reference compound]
[1]
  Ki: 350 ± 30 nM
[2]
  effect on effect-concentration curves of phenylephrine: shifted toward the right without depression of the maximum
  slope of Schild relation, antagonism with phenylephrine: 0.85
[3]
  affinity for α1 receptors: only slight affinity
[4]
  effect on effect-concentration curves of clonidine: shift toward the right of the effect-concentration curves of agonist without diminution of the maximum effect
  slope of Schild relation, antagonism with clonidine: 1.15

## CNc1cc(OC)c(OC)cc1CN1CCc2cc(OC)c(OC)cc2C1 [ISK23, 2-(2-methylamino-4,5-dimethoxybenzyl)-6,7-dimethoxy-1,2,3,4-tetrahydroisoquinoline]
[1]
  Ki: > 10000 nM
[5]
  Ki: 2670 ± 400 nM

## Nc1cc(Cl)ccc1CN1CCc2ccccc2C1 [ISK25, 2-(2-amino-4-chlorobenzyl)-1,2,3,4-tetrahydroisoquinoline]
[1]
  Ki: > 30000 nM
[5]
  Ki: 1400 ± 375 nM

## COc1cc2nc(N3CCN(C(=O)c4ccco4)CC3)nc(N)c2cc1OC [Prazosine, reference compound]
[2]
  effect on effect-concentration curves of phenylephrine: shifted toward the right without depression of the maximum
  slope of Schild relation, antagonism with phenylephrine: 0.99

## COc1cc2c(cc1OC)CN(Cc1ccccc1N)CC2 [ISK17, 2-(2-aminobenzyl)-6,7-dimethoxy-1,2,3,4-tetrahydroisoquinoline]
[1]
  Ki: 3400 ± 300 nM
[5]
  Ki: 1700 ± 300 nM

## COc1ccc2c(c1)CCN(Cc1ccc(Cl)cc1N)C2 [ISK31, 2-(2-amino-4-chlorobenzyl)-6-methoxy-1,2,3,4-tetrahydroisoquinoline]
[1]
  Ki: 1800 ± 330 nM
[5]
  Ki: 155 ± 35 nM

## COc1cc(N)c(CN2CCc3ccccc3C2)cc1OC [ISK18, 2-(2-amino-4,5-dimethoxybenzyl)-1,2,3,4-tetrahydroisoquinoline]
[1]
  Ki: 3220 ± 70 nM
[5]
  Ki: 220 ± 75 nM

## O=[N+]([O-])c1cc(Cl)ccc1CN1CCc2ccccc2C1 [ISK24, 2-(2-nitro-4-chlorobenzyl)-1,2,3,4-tetrahydroisoquinoline]
[1]
  Ki: > 30000 nM
[5]
  Ki: 2740 ± 1020 nM

## COc1ccc2c(c1)CCN(Cc1cc(OC)c(OC)cc1N)C2 [ISK7, 2-(2-amino-4,5-dimethoxybenzyl)-6-methoxy-1,2,3,4-tetrahydroisoquinoline]
[1]
  Ki: 990 ± 50 nM
[5]
  Ki: 63 ± 20 nM
[6]
  affinity for the binding sites of [^3 H] dexetimide: no affinity
[7]
  affinity for the binding sites of [^3 H] ketanserine: no affinity
[8]
  affinity for the binding sites of [^3 H] pyrilamine: no affinity
[9]
  affinity for the binding sites of [^3 H] nitrendipine: no affinity
[10]; according to Furchgott, competitive antagonism, two concentrations (10^-7 and 10^-6), read-out: apparent dissociation constant (antagonism of BHT 920, rat aorta)
  Kd: 120 nM
[10]; antagonism with BHT 920
  pA2 on aorta: 6.9
[10]; rat aorta, 10 minutes contact
  effect on effect-concentration curve of BHT 920: shift to the right of the effect-concentration curve of the agonist, without depression of the maximum
[2]
  effect on effect-concentration curves of phenylephrine: shifted toward the right without depression of the maximum
  slope of Schild relation, antagonism with phenylephrine: very different than 1
[2]; read-out: log of KD, antagonism with phenylephrine (pA2 cannot be calculated) (converted)
  Kd: 2880 nM
[2]; α1 versus α2, rat deferent canal
  inhibition of the effect of phenylephrine relative to clonidine: only at concentrations very significantly higher than the concentrations at which it competitively inhibits the effect of α2 selective agonist, clonidine
[4]
  Kb: 200 nM
[4]; FIG. 2, ISK7 100-3000 nM, prazosine 1000-10,000 nM, yohimbine 30-1000 nM
  effect on effect-concentration curves of clonidine: shift toward the right of the effect-concentration curves of agonist without diminution of the maximum effect
[4]; clonidine (α2) versus phenylephrine (α1)
  antagonist selectivity on isolated rat deferent canal: selective, α2 type adrenergic antagonist
[4]; rat deferent canal, electric stimulation
  slope of Schild relation, antagonism with clonidine: 1.05

## COc1cc2nc(N3CCN(C(=O)c4ccco4)CC3)nc(N)c2cc1OC [Prazosine [^3 H], reference compound]
[1]; read-out: KD of Prazosine [^3 H], radioligand
  Kd: 0.14 nM

## COc1cc(N)c(CN2CCc3cc(OC)c(OC)cc3C2)cc1OC [ISK4, 2-(2-amino-4,5-dimethoxybenzyl)-6,7-dimethoxy-1,2,3,4-tetrahydroisoquinoline]
[1]
  Ki: 2900 ± 400 nM
[5]
  Ki: 810 ± 110 nM
